What was measured:
Format in all cases: cell-based
[1] = tested on: embryonic rat cardiac mesenchymal stem cells and rat bone marrow; assay: Derivation of Isl1+ cells from rat mesenchymal stem cells on laminins in Wnt-medium (Isl1 immunostaining); settings: on LN-521 in combination with hypoxia, two weeks in culture (5 passages)
From the text: In order to further improve feeder free culturing systems where the origin and expansion of multipotent cells could be followed, the inventors synthesized a plasmid construct comprising parts of the Isl1-promotor region linked to the fluorescent marker green fluorescent protein (GFP). The plasmid was introduced into the cells by means of electroporation. Mesenchymal cells (i) derived from rat embryonic hearts, (ii) obtained from rat bone marrow, (iii) obtained from the bone marrow of young healthy donors, (iv) obtained from human cord blood and other types of perinatal tissue, (v) isolated from human amniotic sources, (v) isolated from human adult cardiac tissue were labeled with the Isl1 gene construct concomitant to the addition of Wnt-containing medium (100 ng/ml Wnt-3a and […] BIO). […] In culture the cells grew to confluency and were passaged every other day. At each passage, cells were analysed immunohistochemically for the expression of Isl1.
For each experiment 10 pregnant sprague-dawley rats (gestational day, GD, 13 to 14) were used. The rats were euthanized in a CO2 chamber after which the whole embryos (approximately 10 embryos/rat) were removed through a low midline abdominal incision. From each embryo the heart was removed under microscope, minced into small pieces and rinsed repetitively with Hank's buffered salt solution (HBSS) (GibcoBRL, NY, USA). […]

multipotent cells (MSCs) = assay: Growth curves of multipotent cells (MSCs); settings: LN-521 under hypoxia versus standard conditions (plastic under normoxia)
From the text: Cells can be grown under hypoxic conditions using a variety of methods. Normally, hypoxic conditions for cell culturing are defined as culturing of cells in an atmosphere containing 5% or less of oxygen.

Isl1 cells = assay: qRT-PCR of multipotency and differentiation markers in cells grown under various conditions; settings: LN-521 under hypoxia versus LN-521 normoxia, plastic hypoxia

## LN-521: laminin heterotrimeric glycoprotein comprising an α5 chain, coated on cell culture plastic
[1]
  cells expressing Isl1: 80±15%
Multipotent cells (MSCs)
  proliferation (growth curve): significantly faster
Isl1 cells
  Isl1, KDR and Nkx_2_5 mRNA transcripts: significantly higher
  Troponin T2 transcripts: lower

Source: patent publication US20190112578A1, “Derivation and Self-Renewal of Multipotent Cells and Uses Thereof” (IsletOne AB, priority 2016, published 2019)
